Data reported in US20110281810A1, “Composition” (Cognis IP Management GmbH, priority 2010, published 2011).
Converted amounts (≈) assume the structure as drawn. Blank lines part the entries; values can stand above or below the compound they belong to.

Key:
physchem [1] = assay: physchem
Protocol: The stated products and synergistic mixtures were investigated for their usefulness in pharmaceutical formulations and in particular for solubility improvement for sparingly soluble model substances.
The effect of the stated new solubilizers on the boost to solubility of these active ingredients was investigated and was compared with solubilizers already established for pharmaceutical applications. For this purpose, solution isotherms were recorded, and can be used to ascertain the extent of dissolution mediated by the various solubilizers. The optimum is a sharp increase in drug concentration through the use of small amounts of solubilizer, since increasing concentration may also be accompanied by an increase in the unwanted effects.
The solubilizers investigated were compared with solubilizers already established for pharmaceutical formulations, such as TEGO® SMO 80 V (Polysorbat 80) from Evonik, Solutol® HS 15 from BASF, Ludwigshafen, and Eumulgin® RO 35 PH and Speziol® TPGS Pharma (Tocophersolan) from Cognis, Monheim.

[2] = Solubilization of a homologous series of cinnamic acid derivatives in water by solubilizers; details: aqueous with cosolvent or surfactant or cyclodextrin
From the text: (§1) Additionally investigated was the solubilization of a homologous series of cinnamic acid derivatives.

physchem [3] = details: aqueous with cosolvent or surfactant or cyclodextrin
From the text: as §1

[4] = aqueous with cosolvent or surfactant or cyclodextrin, Solubility with Eumulgin RO35
[5] = aqueous with cosolvent or surfactant or cyclodextrin, Solubility with TEGO SMO 80V
[6] = water, Solubility, no solubilizer
[7] = Eumulgin ES solution in water, Solubility (MW) with Eumulgin ES, water, solubilizer Eumulgin ES
[8] = Eumulgin HPS solution in water, Solubility (MW) with Eumulgin HPS, water, solubilizer Eumulgin HPS
[9] = Eumulgin L solution in water, Solubility (MW) with Eumulgin L, water, solubilizer Eumulgin L
[10] = Eumulgin O10 solution in water, Solubility (MW) with Eumulgin O10, water, solubilizer Eumulgin O10
[11] = Eumulgin RO35 solution in water, Solubility (MW) with Eumulgin RO35, water, solubilizer Eumulgin RO35
[12] = Speziol TPGS solution in water, Solubility (MW) with Speziol TPGS, water, solubilizer Speziol TPGS
[13] = Tego SMO 80V solution in water, Solubility (MW) with Tego SMO 80V, water, solubilizer Tego SMO 80V
[14] = Solubility (MW) with Eumulgin HPS
[15] = Solubility (MW) with Eumulgin L
[16] = Solubility (MW) with Eumulgin O10
[17] = Solubility (MW) with Eumulgin RO35
[18] = Solubility (MW) with Speziol TPGS
[19] = Solubility (MW) with Tego SMO 80V

Compound: CCC(C)n1ncn(-c2ccc(N3CCN(c4ccc(OCC5COC(Cn6cncn6)(c6ccc(Cl)cc6Cl)O5)cc4)CC3)cc2)c1=O (centres unmarked) [Itraconazole]
Solubility with Eumulgin ES (physchem [1]): 9 µg/mL | Solubility with Eumulgin HPS (physchem [1]): 0.008 mg/m1 | Solubility with Eumulgin L (physchem [1]): 7 µg/mL | Solubility with Speziol TPGS (physchem [1]): 8 µg/mL | solubility (physchem [1]; [4]): 11 µg/mL | solubility (physchem [1]; [5]): 15 µg/mL | solubility (physchem [1]; [6]): 1 µg/mL

Compound: COC(=O)C=Cc1ccccc1 [Methyl cinnamate, methyl cinnamate]
solubility [2, 7]: 3000 µg/mL (≈ 18.5 mM) | solubility [2, 8]: 11400 µg/mL (≈ 70.3 mM) | solubility [2, 9]: 9800 µg/mL (≈ 60.4 mM) | solubility [2, 10]: 9100 µg/mL (≈ 56.1 mM) | solubility [2, 11]: 21500 µg/mL (≈ 133 mM) | solubility [2, 12]: 7900 µg/mL (≈ 48.7 mM) | solubility [2, 13]: 9600 µg/mL (≈ 59.2 mM)

Compound: CC[C@H]1OC(=O)[C@H](C)[C@@H](O[C@H]2C[C@@](C)(OC)[C@@H](O)[C@H](C)O2)[C@H](C)[C@@H](O[C@@H]2O[C@H](C)C[C@H](N(C)C)[C@H]2O)[C@](C)(O)C[C@@H](C)C(=O)[C@H](C)[C@@H](O)[C@]1(C)O [Erythromycin]
solubility (physchem [1]; aqueous with cosolvent or surfactant or cyclodextrin, Solubility with Eumulgin HPS): 1230 µg/mL | solubility (physchem [1]; aqueous with cosolvent or surfactant or cyclodextrin, Solubility with Eumulgin L): 1070 µg/mL | solubility (physchem [1]; [4]): 1660 µg/mL | solubility (physchem [1]; aqueous with cosolvent or surfactant or cyclodextrin, Solubility with Speziol TPGS): 1720 µg/mL | solubility (physchem [1]; [5]): 1700 µg/mL | solubility (physchem [1]; [6]): 459 µg/mL

Compound: CC(C)COC(=O)C=Cc1ccccc1 [Isobutyl cinnamate, isobutyl cinnamate]
solubility [2, 7]: 1200 µg/mL (≈ 5.87 mM) | solubility [2, 8]: 29000 µg/mL (≈ 142 mM) | solubility [2, 9]: 41000 µg/mL (≈ 201 mM) | solubility [2, 10]: 65900 µg/mL (≈ 323 mM) | solubility [2, 11]: 54200 µg/mL (≈ 265 mM) | solubility [2, 12]: 23100 µg/mL (≈ 113 mM) | solubility [2, 13]: 110000 µg/mL (≈ 539 mM)

Second part, the compound after the results:

solubility (physchem [3]; Solubility (MW) with Eumulgin ES): 3200 µg/mL (≈ 12.7 mM) | solubility (physchem [3]; [14]): 2700 µg/mL (≈ 10.7 mM) | solubility (physchem [3]; [15]): 2500 µg/mL (≈ 9.91 mM) | solubility (physchem [3]; [16]): 3700 µg/mL (≈ 14.7 mM) | solubility (physchem [3]; [17]): 4900 µg/mL (≈ 19.4 mM) | solubility (physchem [3]; [18]): 2600 µg/mL (≈ 10.3 mM) | solubility (physchem [3]; [19]): 2500 µg/mL (≈ 9.91 mM)
Compound: O=C(C=Cc1ccccc1)OCCc1ccccc1 [Phenethyl cinnamate, phenethyl cinnamate]

solubility (physchem [3]; [14]): 23600 µg/mL (≈ 134 mM) | solubility (physchem [3]; [15]): 14700 µg/mL (≈ 83.4 mM) | solubility (physchem [3]; [16]): 47000 µg/mL (≈ 267 mM) | solubility (physchem [3]; [17]): 68000 µg/mL (≈ 386 mM) | solubility (physchem [3]; [18]): 42300 µg/mL (≈ 240 mM) | solubility (physchem [3]; [19]): 96400 µg/mL (≈ 547 mM)
Compound: CCOC(=O)C=Cc1ccccc1 [Ethyl cinnamate, ethyl cinnamate]

solubility [2, 7]: 3400 µg/mL (≈ 17.9 mM) | solubility [2, 8]: 25700 µg/mL (≈ 135 mM) | solubility [2, 9]: 15200 µg/mL (≈ 79.9 mM) | solubility [2, 10]: 32600 µg/mL (≈ 171 mM) | solubility [2, 11]: 50900 µg/mL (≈ 268 mM) | solubility [2, 12]: 21000 µg/mL (≈ 110 mM) | solubility [2, 13]: 52500 µg/mL (≈ 276 mM)
Compound: CC(C)OC(=O)C=Cc1ccccc1 [Isopropyl cinnamate, isopropyl cinnamate]
